From ChEMBL document CHEMBL1201862, “PubChem BioAssay data set” (2004)
Active and inactive are the calls of the source.

Key:
Protein skinhead-1 = target: T1, Protein skinhead-1 (Caenorhabditis elegans, UniProt P34707); type: functional
T1 sequence (P34707 whole entry): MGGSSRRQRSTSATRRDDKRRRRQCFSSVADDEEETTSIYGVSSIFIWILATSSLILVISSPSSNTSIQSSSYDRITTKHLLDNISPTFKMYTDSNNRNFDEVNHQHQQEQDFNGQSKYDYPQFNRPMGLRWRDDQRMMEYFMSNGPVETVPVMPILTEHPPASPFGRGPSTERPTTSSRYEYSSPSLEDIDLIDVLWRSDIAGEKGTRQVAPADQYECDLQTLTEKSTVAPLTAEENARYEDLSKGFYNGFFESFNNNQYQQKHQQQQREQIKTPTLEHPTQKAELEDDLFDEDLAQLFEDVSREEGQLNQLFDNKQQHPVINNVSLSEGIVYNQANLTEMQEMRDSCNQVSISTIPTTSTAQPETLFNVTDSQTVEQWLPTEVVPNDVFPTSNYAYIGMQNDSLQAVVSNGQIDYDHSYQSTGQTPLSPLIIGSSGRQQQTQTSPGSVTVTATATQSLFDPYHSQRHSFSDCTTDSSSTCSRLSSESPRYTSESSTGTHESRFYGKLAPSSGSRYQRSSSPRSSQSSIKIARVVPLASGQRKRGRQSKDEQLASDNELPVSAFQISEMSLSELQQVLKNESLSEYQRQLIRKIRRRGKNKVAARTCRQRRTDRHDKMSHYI

[1] = target: T2, Rac GTPase-activating protein 1 (Homo sapiens, UniProt Q9H0H5); assay: MgcRacGAP GTPase-activating activity inhibitors, confirmation, biochemical, ADP Hunter fluorescence, primary and confirmatory (AID 624330); type: functional
T2 sequence (Q9H0H5 whole entry): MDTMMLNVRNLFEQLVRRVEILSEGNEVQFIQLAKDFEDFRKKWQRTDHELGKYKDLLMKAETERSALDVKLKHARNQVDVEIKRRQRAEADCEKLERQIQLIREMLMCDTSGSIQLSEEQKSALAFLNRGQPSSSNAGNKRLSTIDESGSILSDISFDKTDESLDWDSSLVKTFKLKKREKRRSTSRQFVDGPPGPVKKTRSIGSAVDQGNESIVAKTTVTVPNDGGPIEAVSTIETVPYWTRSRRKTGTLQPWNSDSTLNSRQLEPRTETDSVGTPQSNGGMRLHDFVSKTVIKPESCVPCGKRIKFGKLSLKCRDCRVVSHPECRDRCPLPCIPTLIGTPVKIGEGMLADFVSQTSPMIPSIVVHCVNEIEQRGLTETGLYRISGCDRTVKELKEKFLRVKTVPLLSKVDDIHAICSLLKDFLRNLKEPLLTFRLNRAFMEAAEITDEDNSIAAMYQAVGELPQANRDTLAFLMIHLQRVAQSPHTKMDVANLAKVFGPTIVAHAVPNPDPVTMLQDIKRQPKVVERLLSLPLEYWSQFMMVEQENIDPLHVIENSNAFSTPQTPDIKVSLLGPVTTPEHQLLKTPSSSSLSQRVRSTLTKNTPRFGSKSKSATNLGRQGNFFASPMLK

H9c2 = assay: cells; type: functional, cell-based; conditions: Rattus norvegicus, H9c2, Myocardium;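 further: confirmatory concentration-response retest of ultra-high-throughput screening hits for modulation of myocardial damage; cell death induced by hydrogen peroxide oxidative stress; compound pretreatment for 60 min then peroxide exposure for 2 h; potency is for protecting the cells against peroxide damage rather than for killing them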
H4 = assay: Luminescence Cell-Based Dose Response HTS to Identify Activators of 5'UTR Stem-Loop Driven Prion Protein mRNA Translation in H4 Neuroglioblastoma Cells. [Related pubchem assays: 1829 (Project Summary), 1814 (Primary HTS)]; type: functional; conditions: Homo sapiens
[2] = ZM109 Env clade C HIV-1 fusion inhibitors, dose response, HeLa effector, CEM target cells, luciferase, cherry-pick (AID 652058); type: functional, cell-based
[3] = inhibitors of clade B AD8 Env fusion, dose response, cell-based, cherry-pick (AID 652062); type: functional;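 further: luciferase signal from cell-cell fusion driven by HIV-1 clade B AD8 Env; potency is for inhibitors of fusion seen as a drop in luminescence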
[4] = target: T3, Replicative DNA helicase DnaB (Mycobacterium tuberculosis, UniProt P9WMR3); assay: DnaB intein splicing inhibitors, dose response, biochemical, cell-free fluorescence (AID 449749); type: functional
T3 sequence (P9WMR3 whole entry): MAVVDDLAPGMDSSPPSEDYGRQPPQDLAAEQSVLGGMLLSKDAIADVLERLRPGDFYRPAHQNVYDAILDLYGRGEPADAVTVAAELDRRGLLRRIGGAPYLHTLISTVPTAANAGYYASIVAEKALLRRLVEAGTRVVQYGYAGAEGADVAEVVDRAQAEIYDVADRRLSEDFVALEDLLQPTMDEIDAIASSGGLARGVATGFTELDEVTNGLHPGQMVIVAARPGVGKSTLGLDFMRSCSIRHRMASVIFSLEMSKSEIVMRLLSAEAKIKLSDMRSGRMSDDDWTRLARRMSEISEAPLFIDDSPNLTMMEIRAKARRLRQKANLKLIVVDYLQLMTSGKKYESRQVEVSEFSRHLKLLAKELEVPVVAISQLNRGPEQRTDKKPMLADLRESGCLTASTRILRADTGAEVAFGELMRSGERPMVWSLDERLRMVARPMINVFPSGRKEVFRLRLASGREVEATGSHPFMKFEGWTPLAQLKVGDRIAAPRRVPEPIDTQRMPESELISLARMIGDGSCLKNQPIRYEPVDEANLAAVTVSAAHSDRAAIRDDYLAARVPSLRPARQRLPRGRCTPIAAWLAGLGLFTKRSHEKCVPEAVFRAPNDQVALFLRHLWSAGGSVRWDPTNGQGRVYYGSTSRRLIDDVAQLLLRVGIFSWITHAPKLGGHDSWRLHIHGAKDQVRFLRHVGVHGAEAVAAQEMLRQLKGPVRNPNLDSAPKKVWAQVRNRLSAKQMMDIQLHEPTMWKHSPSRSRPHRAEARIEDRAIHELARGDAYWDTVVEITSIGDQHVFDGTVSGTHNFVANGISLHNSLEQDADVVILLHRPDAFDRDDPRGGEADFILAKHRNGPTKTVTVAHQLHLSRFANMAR

Protein RecA = target: T4, Protein RecA (Mycobacterium tuberculosis, UniProt P9WHJ3); assay: Fluorescence Cell-Free Homogeneous Dose Retest to Identify Inhibitors of RecA-Intein Splicing Activity. [Related pubchem assays (depositor defined):AID2097, AID2223, AID489010, AID492950]; type: functional
T4 sequence (P9WHJ3 whole entry): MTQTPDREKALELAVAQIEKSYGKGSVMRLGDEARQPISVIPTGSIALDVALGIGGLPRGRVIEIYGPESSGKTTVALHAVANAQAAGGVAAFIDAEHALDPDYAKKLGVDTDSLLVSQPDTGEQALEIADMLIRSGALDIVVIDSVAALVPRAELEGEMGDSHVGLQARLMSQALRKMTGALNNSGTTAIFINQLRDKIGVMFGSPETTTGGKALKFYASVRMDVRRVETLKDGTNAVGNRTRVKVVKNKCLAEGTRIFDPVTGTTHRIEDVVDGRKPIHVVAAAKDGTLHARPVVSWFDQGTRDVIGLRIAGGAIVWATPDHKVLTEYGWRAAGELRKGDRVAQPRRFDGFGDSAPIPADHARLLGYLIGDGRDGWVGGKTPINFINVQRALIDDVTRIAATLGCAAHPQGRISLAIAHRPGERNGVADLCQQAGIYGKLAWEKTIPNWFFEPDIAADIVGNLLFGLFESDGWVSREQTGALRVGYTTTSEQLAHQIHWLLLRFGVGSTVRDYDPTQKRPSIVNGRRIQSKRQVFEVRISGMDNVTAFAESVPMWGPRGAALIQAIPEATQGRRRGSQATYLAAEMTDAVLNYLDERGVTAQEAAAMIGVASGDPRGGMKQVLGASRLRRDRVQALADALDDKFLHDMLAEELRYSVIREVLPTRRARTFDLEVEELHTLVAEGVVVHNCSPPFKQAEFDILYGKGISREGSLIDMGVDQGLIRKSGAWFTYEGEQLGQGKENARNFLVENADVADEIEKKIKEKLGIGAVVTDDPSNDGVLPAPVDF

Cytochrome P450 3A4 = Cytochrome P450 3A4 (Homo sapiens, UniProt P08684);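 further: CYP3A4 tested as one member of a cytochrome P450 panel screen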
Cytochrome P450 2C9 = Cytochrome P450 2C9 (Homo sapiens, UniProt P11712)
Sequence of Cytochrome P450 2C9 (P11712 whole entry): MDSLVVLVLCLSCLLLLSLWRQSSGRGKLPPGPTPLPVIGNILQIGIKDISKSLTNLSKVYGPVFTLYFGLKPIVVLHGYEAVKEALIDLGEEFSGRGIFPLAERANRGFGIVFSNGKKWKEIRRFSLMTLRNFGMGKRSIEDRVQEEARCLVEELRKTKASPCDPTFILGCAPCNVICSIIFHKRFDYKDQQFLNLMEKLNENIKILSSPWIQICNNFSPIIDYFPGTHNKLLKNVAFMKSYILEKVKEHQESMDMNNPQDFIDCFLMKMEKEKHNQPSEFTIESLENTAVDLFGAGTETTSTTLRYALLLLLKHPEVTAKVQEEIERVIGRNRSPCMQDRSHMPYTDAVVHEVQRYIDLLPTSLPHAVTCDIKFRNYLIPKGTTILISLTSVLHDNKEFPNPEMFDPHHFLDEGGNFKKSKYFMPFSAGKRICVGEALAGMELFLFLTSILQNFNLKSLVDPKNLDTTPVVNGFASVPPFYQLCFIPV

Sequence of Cytochrome P450 3A4 (P08684 whole entry): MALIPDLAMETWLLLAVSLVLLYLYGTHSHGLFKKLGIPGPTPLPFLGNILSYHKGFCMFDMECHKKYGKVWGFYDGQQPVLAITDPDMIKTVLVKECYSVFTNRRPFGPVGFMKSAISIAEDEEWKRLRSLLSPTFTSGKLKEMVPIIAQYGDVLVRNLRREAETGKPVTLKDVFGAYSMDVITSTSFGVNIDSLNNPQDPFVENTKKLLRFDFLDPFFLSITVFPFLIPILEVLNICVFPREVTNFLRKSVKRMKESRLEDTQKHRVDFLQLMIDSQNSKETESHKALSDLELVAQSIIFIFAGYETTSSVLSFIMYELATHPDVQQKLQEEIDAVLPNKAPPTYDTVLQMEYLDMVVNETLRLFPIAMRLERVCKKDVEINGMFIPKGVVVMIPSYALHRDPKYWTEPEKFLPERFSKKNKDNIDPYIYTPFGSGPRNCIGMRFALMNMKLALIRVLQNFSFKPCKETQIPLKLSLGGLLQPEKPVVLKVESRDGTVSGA

SMILES: Fc1ccc(-c2csc(Nc3ccccn3)n2)c(F)c1
- IC50 (Protein skinhead-1): > 100 µM (inactive)

SMILES: CCOC(=O)C1CCN(Cc2c[nH]nc2-c2ccccc2)CC1
- IC50 [1]: 131 µM (active)

SMILES: Oc1nnc(-c2cccs2)c2ccccc12
- IC50 (H9c2): 19.4 µM (active)

SMILES: COc1ccc(S(=O)(=O)N2CC(O)CC2C(=O)OCc2nc(O)c3c(C)c(C)sc3n2)cc1 (stereo unspecified)
- IC50 (H9c2): 31 µM (inactive)

SMILES: N#C/C(=C\c1ccc(N2CCCCC2)o1)C(=O)Nc1cccc(Br)c1
- EC50 (H4): 102 nM (active)

SMILES: COC(=O)c1ccc(CSc2ccc3nnc(-c4cccc(F)c4)n3n2)o1
- IC50 (H9c2): > 79 µM (inactive)

SMILES: CCN(CC)CCN1C(=O)C(O)=C(C(=O)c2cnn(-c3ccccc3)c2C)C1c1ccc(C)o1 (stereo unspecified)
- IC50 (Protein skinhead-1): > 100 µM (inactive)

SMILES: CCOC(=O)C1CCCN(Cc2nc(N)nc(Nc3ccc(OC)cc3)n2)C1 (stereo unspecified)
- AC50 [2]: 4.93 µM (active)
- AC50 [3]: 27 µM (active)

SMILES: O=[N+]([O-])c1ccc(Oc2ccc(F)cc2)c2ccncc12
- AC50 [4]: > 380 µM (inactive)
- EC50 (Protein RecA): 1.4 µM (active)
- IC50 (Protein skinhead-1): > 100 µM (inactive)

SMILES: COc1ccccc1-c1c(C(F)(F)F)oc2cc(OC(=O)c3cccc([N+](=O)[O-])c3C)ccc2c1=O
- IC50 (Protein skinhead-1): > 100 µM (inactive)
- AC50 (Cytochrome P450 3A4): 12.6 µM (inconclusive)
- AC50 (Cytochrome P450 2C9): 447 nM (inconclusive)

SMILES: CCn1c(C)c(C2=CCN(S(=O)(=O)c3ccccc3)CC2)c2ccccc21
- IC50 (Protein skinhead-1): > 100 µM (inactive)

SMILES: COc1ccc(NC(=O)COc2cccc3c2CCNC3=O)cc1
- IC50 (H9c2): > 79 µM (inactive)

SMILES: CCCCCCOC(=O)c1ccc(OC(=O)c2cccnc2)cc1
- AC50 [4]: 3.69 µM (active)
- EC50 (Protein RecA): 3.58 µM (active)

SMILES: Cc1ccc(C)c(N/C([S-])=C(/C(=O)c2ccc(OC(F)F)cc2)[n+]2ccccc2)c1
- AC50 [4]: 36.6 µM (active)
- EC50 (Protein RecA): 11.5 µM (active)

SMILES: Cc1cc(C)n2c(SCc3c(C)noc3C)nnc2n1
- IC50 (Protein skinhead-1): > 100 µM (inactive)

SMILES: O=C(NCC(=O)N(Cc1cccs1)C(C(=O)NC1CCCCC1)c1ccncc1)c1ccco1 (stereo unspecified)
- IC50 (Protein skinhead-1): > 100 µM (inactive)

SMILES: COc1ccc(NC2CCCN(C(=O)CSc3ccccc3)C2)cc1OC (stereo unspecified)
- IC50 [1]: 60 µM (active)

SMILES: COc1ccc(NC(=O)/C(C#N)=C/c2ncc([N+](=O)[O-])n2C)c(OC)c1
- AC50 [4]: 67.5 µM (active)
- EC50 (Protein RecA): 15.6 µM (active)

SMILES: CCCNCc1cc(Cl)c(OCC)c(Cl)c1
- IC50 (Protein skinhead-1): > 100 µM (inactive)

SMILES: c1ccc(OCc2nc(-c3cccs3)no2)cc1
- IC50 (Protein skinhead-1): 31.5 µM (active)

SMILES: CCOc1cccc2cc(C(=O)N3CCc4ccccc43)c(=O)oc12
- IC50 (Protein skinhead-1): > 100 µM (inactive)

SMILES: COCCCn1c(SCC(=O)NC(C)C)nnc1-c1ccccc1
- IC50 (Protein skinhead-1): > 100 µM (inactive)

SMILES: Cc1[nH][nH]c(=O)c1C(c1ccc(N(C)C)c(Br)c1)c1c(C)[nH][nH]c1=O
- AC50 [4]: 0.467 µM (active)
- EC50 (Protein RecA): 0.274 µM (active)

SMILES: Cn1c(=O)[nH]c(=O)c2c1nc(NCCc1ccccc1)n2CC(O)COc1ccccc1 (stereo unspecified)
- IC50 (H9c2): > 79 µM (inactive)

SMILES: Cc1ccc(C(=O)Nc2cccc(C(F)(F)F)c2)cc1NC(=O)c1csc(-c2ccncc2)n1
- IC50 (H9c2): > 79 µM (inactive)

SMILES: O=C(c1c[nH]c(C(=O)C(Cl)(Cl)Cl)c1)c1ccccc1Br
- AC50 [4]: 6.31 µM (active)
- EC50 (Protein RecA): 6.33 µM (active)

SMILES: COc1ccc2nc(O)c(CNC3CCCCC3)cc2c1
- IC50 (H9c2): 46.3 µM (inactive)

SMILES: Clc1ccc(-c2nnsc2SCc2ccccc2)cc1
- IC50 (Protein skinhead-1): > 100 µM (inactive)

SMILES: CC(C)(C)OC(=O)CNC(=O)c1[nH]cnc1C(=O)Nc1ccc(CNC(=O)OC(C)(C)C)cc1
- IC50 (H9c2): > 79 µM (inactive)

SMILES: C[C@H](CO)N1C[C@H](C)[C@@H](CN(C)S(=O)(=O)c2cccs2)Oc2ccc(NC(=O)Nc3ccccc3)cc2C1=O
- IC50 (H9c2): 11.9 µM (active)

SMILES: COc1ccc(C=NNC(=O)c2cc(C)oc2C)cc1O
- IC50 [1]: 107 µM (active)

SMILES: Nc1nc(N)c2[nH]c(S)nc2n1
- IC50 [1]: 163 µM (active)

SMILES: Cc1cccc(NC(=O)c2[nH]cnc2C(=O)NCCCCNC(=O)c2nc[nH]c2C(=O)Nc2cccc(C)c2)c1
- IC50 (H9c2): > 79 µM (inactive)

SMILES: Cc1nn(Cc2ccc(C(=O)N3CCN(C(=O)c4ccco4)CC3)o2)c(C)c1[N+](=O)[O-]
- IC50 (H9c2): 21.9 µM (active)

SMILES: O=C(Nc1cc(C(F)(F)F)ccc1N1CCCCC1)C1=COCCO1
- IC50 (Protein skinhead-1): > 100 µM (inactive)

SMILES: C/C(CC(=O)Nc1cc(C)ccn1)=N\NC(=O)c1ccccc1C
- AC50 [4]: 26.8 µM (active)
- EC50 (Protein RecA): 6.24 µM (active)

SMILES: CC(C)NC(=O)Nc1ccc2c(c1)C(=O)N([C@@H](C)CO)C[C@H](C)[C@H](CN(C)C(=O)Nc1ccc(F)cc1)O2
- AC50 [2]: 22.4 µM (active)
- AC50 [3]: 58.4 µM (active)

SMILES: O=C(CCCCCNC(=O)c1ccccc1)N/N=C/c1ccc(O)cc1O
- IC50 [1]: 69.9 µM (active)

SMILES: O=C1CC(Nc2ccc(N3CCOCC3)cc2)C(=O)N1Cc1ccccc1 (stereo unspecified)
- IC50 [1]: 140 µM (active)
